Assay results from patent publication US8552035B2, “Phenanthrenone compounds, compositions and methods” (Pfizer Inc., priority 2008, dated 2013).

Key:
osteocalcin = assay: 28-day mouse side-effect model, serum osteocalcin suppression; format: in vivo; settings: oral gavage 28 days
Method: (§1) 10-12 week old female Swiss Webster mice (Taconic, Germantown, N.Y., U.S.A.) weighing 27-29 grams are used in accordance with the guidelines of the Institutional Animal Care and Use Committee and in accordance with NIH guidelines on laboratory animal welfare. Mice are acclimated to the Pfizer animal facility for 3-7 days prior to being placed on study. Prednisolone and DAGR compounds are administered by oral gavage for a total of 28 days. Each treatment group generally contains 8-10 mice. To establish a dosing regimen for the studies, a pilot pharmacodynamic time course experiment is conducted to quantify TNFa repression after a single ED80 dose (determined from the acute LPS endotoxemia mouse model). […] DAGR compounds vary in their required frequency of doses.
(§2) Body weights are measured on the first and last day of each experiment. Blood samples are obtained after ˜3 weeks of dosing for steady-state pharmacokinetic analysis. To assess compound effects on LPS-induced TNF-a, all mice receive an intraperitoneal injection of LPS (Salmonella Typhosa, Sigma, St. Louis, L-7895) 2.5 hr after the last dose on day 28. Mice are sacrificed 90 min. after LPS administration. Serum samples are assayed for osteocalcin and TNFa using the Linco multiplex assay (St. Charles, Mo.) and Luminex 100 (Austin, Tex.). Samples are diluted 1:20 and the assay is run according to manufacturer's instructions. An osteocalcin standard is purchased separately from Biomedical Technologies Incorporated (Stoughton, Mass.). Serum insulin is measured to assess compound effects on insulin resistance. Insulin was measured using the UltraSensitive Mouse EIA kit from Alpco Diagnostics (Salem, N.H.) following the manufacturer's protocol.
(§3) ED50 and ED80 values are obtained for the various parameters using four-parameter logistic fits of data. For each experiment/dose group, outliers are detected by calculating the number of standard deviations each mouse's value was from the mean of their group and then dividing by the standard deviation of the group. The means and standard deviations used in this calculation omitted the value being examined so that, if it were an outlier, it would have no influence. If the value being examined is more than 2.5 standard deviations from the mean, it was not used in the rest of the calculations.
(§4) Percent inhibition values are then calculated for each animal using the means of the vehicle and 10 mpk prednisone control groups. The individual mouse percent inhibition values are then fit to a four-parameter logistic model using the area under curve mean for each group. Since all four parameters are estimated and the lower plateau is not fixed at 0% and the upper plateau was not fixed at 100%, the ED50 and ED80 values are calculated by using an inverse calibration formula for a response equal to 50% or 80%. The designation “nd” means not determined.

IFNγ = assay: LPS-induced human whole blood, IFNγ release; format: cell-based
Method: (§5) Venous blood from human donors was collected as 10 ml aliquots in tubes containing sodium heparin (BD Vacutainer from Becton Dickinson and Company, Franklin Lakes, N.Y.). Blood was added to sterile polystyrene round bottom 96-well tissue culture plates (Corning Costar) at 180 Blood was placed in a humidified 37 C incubator with 5% CO2 while compounds were prepared (nearly 60 minutes).
(§6) Compounds were prepared from 10 mM stock solutions in dimethylsulfoxide (DMSO, Sigma-Aldrich). Stock compound was diluted in DMSO to give appropriate starting concentration then diluted serially 1/3 in DMSO (i.e. 15 μl compound+30 μl DMSO), followed by diluting each serial dilution 1/167 into vehicle solution (2% DMSO in phosphate buffered saline (Dulbecco's Phosphate Buffered Saline without calcium chloride without magnesium chloride, Invitrogen Corporation, Carlsbad Calif.)). Compound or vehicle was added to blood in 10 μl aliquots as triplicates, omitting the outside wells to minimize possible edge effects. The final highest concentration of each compound in the assay ranged from 3 to 0.3 μM. Final DMSO concentration in the assay was 0.1%. The plate containing the samples was gently vortexed to mix and replaced in the incubator. LPS stock (E. coli serotype 0111:B4, Sigma-Aldrich), stored in aliquots of 100 μg/ml in RPMI at −20° C., was diluted […] in RPMI to make a working stock solution. After 60 minutes of incubation, 10 μl of the prepared LPS working stock was added to the blood to a final concentration of 100 ng/ml. Wells to be used as negative control received RPMI media with no LPS. The plate was again gently vortexed and the plates incubated overnight for 22 hours. Following incubation, the blood was centrifuged at 1500×g for 5 minutes and the plasma removed to either freeze at −20° C. or assay for cytokine release.
(§7) IL-1β, IFNγ and TNFα protein levels were measured using Meso Scale assay kits (Meso Scale Discovery, Gaithersburg, Md., U.S.A.). Reagents were allowed to come to room temperature. Meso Scale plates were blocked with 150 μl of Meso Scale Block B diluent, gently shaking at room temperature for 60 minutes. Plates were washed 3× with wash buffer (PBS, Invitrogen Corporation, with 0.05% Tween-20, Sigma-Aldrich). Calibrators for standard curves were prepared in human plasma/serum assay diluent as a 1/5 serial dilution to achieve final concentrations ranging from 50000 pg/ml to 3.2 pg/ml. Samples were added at 10 to 20 μl/well and calibrators were added at 20 μl/well then incubated at room temperature with gentle shaking for 2 hours. Plates were again washed 3× with wash buffer. Detection antibody was diluted in human plasma/serum antibody diluent to 1 μg/ml and added to the plate at 20 μl/well. Plates were incubated as before for 2 hours and washed again. Read Buffer T (4×) was diluted 1:1 with mqH20 to 2× concentration and 150 μl added to each well. Plates were read on the SECTOR Imager 6000 (Meso Scale Discovery) to generate raw signal values.
(§8) Individual sample signal values were compared to positive and negative controls (vehicle treated blood with LPS and vehicle treated blood without LPS, respectively) to generate % inhibition. Triplicate values were averaged for each donor. The values for three or four donors were averaged and graphed using 4-parameter fit curves in the LabStats plug-in for the Microsoft Excel application.

IL-1β = assay: LPS-induced human whole blood, IL-1β release; format: cell-based
Method: as §5, §6, §7, §8

TNFα = assay: LPS-induced human whole blood, TNFα release; format: cell-based
Method: as §5, §6, §7, §8

LPS-induced TNFα = assay: 28-day mouse side-effect model, LPS-induced serum TNFα suppression; format: in vivo; settings: oral gavage 28 days, LPS challenge
Method: as §1, §2, §3, §4

[1] = Homo sapiens, 0.137174 nM, mean of donors
[2] = Homo sapiens, 0.411523 nM, mean of donors
[3] = Homo sapiens, 1.234568 nM, mean of donors
[4] = Homo sapiens, 3.703704 nM, mean of donors
[5] = Homo sapiens, 11.11111 nM, mean of donors
[6] = Homo sapiens, 33.33333 nM, mean of donors
[7] = Homo sapiens, 100 nM, mean of donors
[8] = Homo sapiens, 300 nM, mean of donors
[9] = ex vivo LPS-stimulated human whole blood, extent of inhibition, concentration not given

SMILES: Cc1ncccc1NC(=O)c1ccc2c(c1)C(=O)C[C@@H]1C[C@@](O)(c3ccccc3)[C@](C)(O)C[C@@]21Cc1ccccc1 [Example 1, (4bR,6R,7R,8aS)-4b-benzyl-6,7-dihydroxy-6-methyl-N-(2-methylpyridin-3-yl)-10-oxo-7-phenyl-4b,5,6,7,8,8a,9,10-octahydrophenanthrene-2-carboxamide]
- ED50 at 28 days (osteocalcin; female, Swiss Webster, read-out: Osteocalcin Suppression (ED50 dose)): 0.081 mg/kg
- Osteocalcin Suppression (ED80 dose) (osteocalcin): 0.35
- inhibition at 0.000137174 µM (IFNγ; [1]): -3.93%
- inhibition at 0.000411523 µM (IFNγ; [2]): 15.6%
- inhibition at 0.00123457 µM (IFNγ; [3]): 18.4%
- inhibition at 0.0037037 µM (IFNγ; [4]): 26.9%
- inhibition at 0.0111111 µM (IFNγ; [5]): 51%
- inhibition at 0.0333333 µM (IFNγ; [6]): 66.2%
- inhibition at 0.1 µM (IFNγ; [7]): 72.5%
- inhibition at 0.3 µM (IFNγ; [8]): 72.9%
- level of inhibition of IFN (IFNγ; [9]): 73%
- inhibition at 0.000137174 µM (IL-1β; [1]): -0.94%
- inhibition at 0.000411523 µM (IL-1β; [2]): -1.08%
- inhibition at 0.00123457 µM (IL-1β; [3]): 1.18%
- inhibition at 0.0037037 µM (IL-1β; [4]): 5.14%
- inhibition at 0.0111111 µM (IL-1β; [5]): 15.4%
- inhibition at 0.0333333 µM (IL-1β; [6]): 26.4%
- inhibition at 0.1 µM (IL-1β; [7]): 37.6%
- inhibition at 0.3 µM (IL-1β; [8]): 38%
- level of inhibition of IL-1 (IL-1β; [9]): 38%
- inhibition at 0.000137174 µM (TNFα; [1]): 0.604%
- inhibition at 0.000411523 µM (TNFα; [2]): -3.62%
- inhibition at 0.00123457 µM (TNFα; [3]): 0.811%
- inhibition at 0.0037037 µM (TNFα; [4]): 7.09%
- inhibition at 0.0111111 µM (TNFα; [5]): 18.1%
- inhibition at 0.0333333 µM (TNFα; [6]): 30.7%
- inhibition at 0.1 µM (TNFα; [7]): 42.2%
- inhibition at 0.3 µM (TNFα; [8]): 42.8%
- level of inhibition of TNF (TNFα; [9]): 43%
- ED50 (LPS-induced TNFα; 672 h, read-out: TNFα Suppression (ED50 dose)): 0.029 mg/kg
- TNFα Suppression (ED80 dose) (LPS-induced TNFα): 0.11
